According to publication PMC8490515, “Neuromedin B receptor stimulation of Cav3.2 T-type Ca^2+ channels in primary sensory neurons mediates peripheral pain hypersensitivity” (Theranostics, 2021):

How the values were obtained:
[1] = system: p42 MAPK in Rat-1 cells transfected with the Nmb-preferring receptor; conditions: PKC-independent and pertussis toxin-insensitive; ref [62]; cited from earlier work
Source text: In contrast, stimulation of PKC either by insulin-like growth factor in dorsal root ganglion neurons or by angiote ...

[2] = system: phosphorylated AMPK (p-AMPK); assay: Western blot of phosphorylated AMPK in TG cells; format: cell-based, mouse; conditions: Nmb exposure (100 nM) in TG cells
[3] = system: heat hypersensitivity in mice; assay: Heat test, head withdrawal latency (HWL); format: in vivo, mouse; conditions: intra-TG 1 nmol or 5 nmol
Experimental: For experiments that several time points are needed to be checked in 24 h, von Frey test was used, as orofacial stimulation test can be checked only once a day, [32]. For the von Frey test, the mice were placed in metal mesh boxes and allowed 30 min for habituation before examination. Mechanical hypersensitivity was assessed as described in previous studies, [33]. In brief, the threshold was assessed with a set of von Frey hairs (0.02-2.56 g, Stoelting) applied to the whisker pad in an ascending series of trials, with three separate von Frey stimulations applied per series. The threshold was determined when mice moved their heads away briskly and strongly from at least one of the three stimuli. Dixon's up-down method was used to determine the 50% probability of escape threshold. For thermal test, a heat stimulus was applied to the maxillary whisker pad skin by radiant heat (IITC Life Science). Heat sensitivity was expressed as head-withdrawal latency (HWL). The radiant heat intensity was adjusted so that basal HWL is between 10-15 s, with a cut-off of 18 s to prevent tissue damage. Chronic inflammatory pain was induced by subcutaneous injection of 20 μL of complete Freund's adjuvant (CFA) into the left side of the buccal pad. […]

[4] = system: transient outward K^+ channel (IA); assay: Transient outward A-type K+ currents (IA) in TG neurons; format: cell-based, mouse; conditions: 100 nM
Experimental: All the procedures performed in this study were carried out in accordance with NIH guidelines and were approved by the Institutional Animal Care and Use Committee of Soochow University. TG neurons were dissociated as previously described, [23]. Briefly, TGs were harvested from 8- to 10-week-old ICR mice of either sex, cut into small pieces and treated with 2 mg/mL collagenase D (Roche) for 20 min followed by 1.5 mg/mL trypsin (Sigma) at 37 °C for 15 min. Cells were dissociated via gentle trituration with fire-polished sterilized Pasteur pipettes and centrifuged through a 15% BSA gradient to remove debris and nonneuronal cells. TG neurons were resuspended in neurobasal A (Thermo Fisher) supplemented with B27 (Thermo Fisher) and transferred onto Matrigel-coated coverslips. Patch clamp recordings were conducted 2 to 6 h after plating. In shRNA-treated knockdown experiments, TG cells were replated onto coverslips 48 h after infection.
Standard whole-cell recordings were made at room temperature (22-23 °C) as described previously, [25]. Recording electrodes were pulled from borosilicate glass microcapillary tubes (Sutter Instruments) and had resistances from 3 to 5 MΩ when filled with internal solution. Recordings were obtained using a MultiClamp 700B amplifier (Axon Instruments). […]

[5] = system: nociception and neurogenic inflammation; conditions: application of Nmb; ref [4], [5]; cited from earlier work
Source text: It has been well established that T-type channels promote Ca^2+ entry that disrupts the resting membrane potential and can modulate neuronal activity in the peripheral and central nervous systems, thus improving transmission efficiency. In the peripheral sensory neurons this low activation threshold property of T-type channels typically results in the amplification of sensory signals, increased afferent sensory transmission and, in particular, increased pain perception, [74].

Neuromedin B [Nmb]
p42 MAPK activation [1]: activated p42 MAPK | level of phosphorylated AMPK [2]: markedly increased | head withdrawal latency effect, duration [3]: maintained at 3 h | head withdrawal latency (HWL) ([3]; at 1 h): significantly decreased the head withdrawal latency | decrease of peak amplitude of IA [4]: 22.3 ± 3.9% | pro-nociceptive effects of Nmb [5]: can induce pro-nociceptive effects
